Assay results as given in paper PMC3189933, “Acylpeptide Hydrolase Inhibition as Targeted Strategy to Induce Proteasomal Down-Regulation” (PLoS ONE, 2011).
Where a SMILES comes first, the peptide text is derived from it. Where no end group is shown, it is not given here. The star is where a group is joined. Cbz = O=C(OCc1ccccc1)*

Key:
[1] = tested on: polyubiquitinylated proteins in Caco-2 cells; assay: Protein ubiquitinylation in Caco-2 cells (immunoblot); assay type: cell-based, human; details: 48 h, 200 µM SsCEI 4 or t10c12-CLA, mixture, 100 µM ebelactone, 10 µM MG132, species 66 kDa to 160 kDa
Text: The following antibodies were used: anti-APEH antibody (sc-102311; Santa Cruz Biotechnology); anti-NF-κB/p65 antibody (Thermo Scientific); anti-p21Waf1 antibody (Exbio); pan Ab-5 anti-actin antibody (clone ACTN05, Thermo Scientific); and monoclonal antibodies against polyubiquitinylated proteins conjugated with horseradish peroxidase (FK2H, Enzo, Life Science). The ΔF508CFTR-3HA protein was detected with an anti HA monoclonal antibody (Covance).

APEH in Caco-2 cells = assay: APEH activity in Caco-2 cells; details: differentiated Caco-2 cells
Protocol: Porcine liver APEH activity was measured spectrophotometrically using the chromogenic substrate acetyl-Ala-pNA (Bachem). The reaction mixture (1 mL) containing pure APEH (38 ng) or an appropriate amount of cell extract in 50 mM Tris-HCl buffer pH 7.5 (Tris Buffer), was preincubated at 37°C for 2 min. Then, 1 mM acetyl-Ala-pNA was added and the release of p-nitroanilide (ε410 = 8800 M-1 cm-1) was measured by recording the absorbance increase at 410 nm on a Cary 100 Scan (Varian) UV/Vis spectrophotometer, equipped with a thermostated cuvette compartment. APEH activity was expressed in IU. The APEHSs activity was measured using acetyl-Leu-pNA (0.1 mM) (Sigma) as substrate. The reaction mixture (1 mL) containing the appropriate amount of enzyme in 25 mM Tris-HCl buffer pH 7.5, was preincubated at 80°C for 2 min. Then, 0.1 mM acetyl-Leu-pNA was added and the release of p-nitroanilide was measured, following the standard assay procedure described above.
Caco-2 cells (ATCC) were cultivated in DMEM supplemented with 10% FBS, 1 mM glutamine and 100 units/mL penicillin-streptomycin at 37°C in a humidified 5% CO2 atmosphere. The cells were studied between passages 12 and 22. The cells were split using trypsin-EDTA solution and plated in 6-well plates at a density of 8×10^4 cells/mL and the medium was replaced every 2–3 days. Under these conditions, the cells reached visual confluence after 7 days and the differentiated stage two weeks later. The differentiated cells were incubated for 48 h with the different substances.
Following the treatments, the BHK and Caco-2 cells were washed three times with ice cold phosphate-buffered saline and collected immediately at 4°C in lysis buffer (1% Triton X-100, 0.1% SDS, 20 mM Tris-HCl, pH 8.0, 150 mM NaCl, 0.5% sodium deoxycholate and complete protease inhibitors [Roche]). The lysates were centrifuged at 10,000×g for 15 min at 4°C. The protein concentrations in the clear supernatants were determined (BCA protein assay reagent kit; Pierce) before their use in enzymatic assays or SDS–PAGE.

APEHSs = assay: Inhibition of S. solfataricus APEH (APEHSs), Ac-Leu-pNA substrate; assay type: biochemical, Sulfolobus solfataricus; details: increasing inhibitor concentrations, Ac-Leu-pNA, pre-incubated 30 min at 80°C
Protocol: (§1) APEH activity was expressed in IU.
(§2) Protease inhibitor activities of the SsCEI peptides and the CLA isomers were carried out using a fixed amount of APEH or partially purified proteasome (3–5 nM and 0.12 mg/mL, respectively), and increasing the SsCEI and CLA isomer concentrations. Mixtures were pre-incubated for 30 min at 37°C before the addition of the substrate, and the enzymatic activities were followed as described above. Protease inhibitor activities of the SsCEI peptides and the CLA isomers were determined towards APEHSs. The protease and increasing concentrations of the inhibitors were mixed and preincubated for 30 min at 80°C before the addition of the specific substrate. The residual enzymatic activity was determined using the assay procedure described above.
(§3) All data were obtained from triplicate analyses of three different preparations. Data were presented as means ±S.D. Statistical analysis and IC50 values were calculated with the SigmaPlot 10.0 software through a non-linear curve-fitting method and using a simple binding isotherm equation. Groups were compared by Student's t test, and P<0.05 was considered as significant.

porcine APEH [2] = target: T1, porcine APEH (Sus scrofa, UniProt P19205); assay: Inhibition of porcine liver APEH, Ac-Ala-pNA substrate; assay type: biochemical; details: Ac-Ala-pNA, pre-incubated 30 min at 37°C
T1 construct: mammalian APEHs purified from both porcine liver and human colon carcinoma intestinal cells (Caco-2); purchased Takara; host or cells: porcine liver
T1 sequence (P19205 1-732): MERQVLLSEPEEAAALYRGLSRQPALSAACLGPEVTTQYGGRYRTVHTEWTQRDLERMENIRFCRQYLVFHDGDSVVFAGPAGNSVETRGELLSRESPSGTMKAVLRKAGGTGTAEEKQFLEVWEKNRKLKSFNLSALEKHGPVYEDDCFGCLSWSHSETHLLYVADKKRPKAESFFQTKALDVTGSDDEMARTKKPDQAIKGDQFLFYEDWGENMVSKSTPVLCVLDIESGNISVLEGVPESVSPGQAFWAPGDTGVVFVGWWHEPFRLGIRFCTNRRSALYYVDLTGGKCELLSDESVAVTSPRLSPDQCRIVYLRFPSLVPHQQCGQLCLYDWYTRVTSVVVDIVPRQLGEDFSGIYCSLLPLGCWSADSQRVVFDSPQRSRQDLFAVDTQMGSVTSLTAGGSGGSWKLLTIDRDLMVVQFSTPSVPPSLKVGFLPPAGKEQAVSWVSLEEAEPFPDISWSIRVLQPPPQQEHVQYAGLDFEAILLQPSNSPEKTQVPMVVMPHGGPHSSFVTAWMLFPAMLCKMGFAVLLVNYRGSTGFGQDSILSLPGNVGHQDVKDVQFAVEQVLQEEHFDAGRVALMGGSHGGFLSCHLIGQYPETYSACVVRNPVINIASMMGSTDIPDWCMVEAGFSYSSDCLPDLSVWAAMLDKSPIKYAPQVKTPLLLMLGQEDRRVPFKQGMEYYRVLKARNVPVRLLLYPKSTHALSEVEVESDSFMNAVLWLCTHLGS
Protocol: as §1, §2, §3

Caco-2 cells = assay: LDH release cytotoxicity assay in Caco-2 cells; details: 48 h; for toxicity (LDH release) compared with MG132: 200 µM SsCEI 4 or t10c12-CLA, 100 µM ebelactone, MG132 10 µM
Protocol: The release of LDH was used as the marker for cell toxicity [48]. The culture supernatants were sampled at the end of the incubations and centrifuged (4,000×g, 5 min, and 4°C). Aliquots of the clear supernatant (10 µL) were incubated with 190 µL reaction buffer (200 mM Tris/HCl, pH 8.0, 0.7 mM p-iodonitrotetrazolium violet, 50 mM L-lactic acid, 0.3 mM phenazine methoxysulphate, 0.4 mM NAD,) for 30 min at 37°C. Absorbance was measured at 490 nm and the results were expressed as percentages of total LDH release from control cultures treated with 1% (w/v) Triton X-100 and calculated as: [(experimental value - blank value)/(total lysis -blank value)−100].

porcine APEH [3] = target: T1, porcine APEH; assay: APEH inhibition in a reaction mixture containing the entire set of proteases; assay type: biochemical; details: mixture with trypsin, α-chymotrypsin, elastase, carboxypeptidase Y, subtilisin, thrombin; data not shown
human APEH = target: T2, human APEH (Homo sapiens, UniProt P13798); assay: Inhibition of human APEH purified from Caco-2 cells; assay type: biochemical; details: human APEH from Caco-2 cells, Ac-Ala-pNA; data not shown
T2 construct: Partial purification of human APEH and proteasome was carried out from protein extracts of Caco-2 cell; endogenous in cells; host or cells: Caco-2
T2 sequence (P13798 1-732): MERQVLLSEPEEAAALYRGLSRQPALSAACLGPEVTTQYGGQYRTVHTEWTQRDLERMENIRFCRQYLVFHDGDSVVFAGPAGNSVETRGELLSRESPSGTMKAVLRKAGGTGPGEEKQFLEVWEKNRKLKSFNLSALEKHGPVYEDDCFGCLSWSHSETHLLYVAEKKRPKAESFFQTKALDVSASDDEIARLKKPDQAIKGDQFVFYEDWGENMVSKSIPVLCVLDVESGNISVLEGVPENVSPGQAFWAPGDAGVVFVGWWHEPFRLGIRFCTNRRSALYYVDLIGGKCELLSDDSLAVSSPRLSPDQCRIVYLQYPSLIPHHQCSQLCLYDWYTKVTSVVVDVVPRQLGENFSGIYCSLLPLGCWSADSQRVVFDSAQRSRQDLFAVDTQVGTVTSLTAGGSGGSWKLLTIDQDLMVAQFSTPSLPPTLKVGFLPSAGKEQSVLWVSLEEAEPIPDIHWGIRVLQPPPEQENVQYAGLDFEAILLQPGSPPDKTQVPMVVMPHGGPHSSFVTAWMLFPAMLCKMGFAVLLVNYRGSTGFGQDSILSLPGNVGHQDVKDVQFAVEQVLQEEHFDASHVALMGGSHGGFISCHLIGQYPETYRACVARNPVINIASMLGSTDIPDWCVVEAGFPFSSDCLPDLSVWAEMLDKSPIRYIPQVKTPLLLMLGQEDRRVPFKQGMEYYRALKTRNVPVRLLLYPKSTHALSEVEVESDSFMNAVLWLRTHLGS
Protocol: APEH from Sulfolobus solfataricus was purified as previously reported. Partial purification of human APEH and proteasome was carried out from protein extracts of Caco-2 cell. Briefly, protein extracts (500 µg) were fractionated by gel filtration chromatography on a Superdex 200 PC 3.2/30 column connected to a SMART System (Pharmacia) equilibrated in buffer 50 mM Tris-HCl, pH 7.5, 100 mM NaCl, at 0.1 mL/min. The eluted fractions were assayed using the specific substrates for APEH and the proteasome. The active fractions were collected and used for further analysis.
as §1, §2

[4] = Enzymatic stability in 10% FBS; assay type: in vitro ADME; details: method as ref 19, data not shown
porcine APEH [5] = target: T1, porcine APEH; assay: RP-HPLC analysis of SsCEI 4 incubated with the target enzyme; assay type: in vitro ADME; details: 50 mM Tris pH 7.5, 37°C, up to 2 h, RP-HPLC C18, UV, printed 4 µM SsCEI 4 and 100 µM APEH
Protocol: The experiments were conducted at 37°C in 50 mM Tris buffer, pH 7.5. Solutions of SsCEI 4 and porcine APEH were incubated for up to 2 h at optimal concentrations (4 µM SsCEI 4 and 100 µM APEH) to guarantee a high degree of enzymatic inhibition. At specific time intervals, 195 µL aliquots were taken, and the reaction was stopped by addition of 5 µL TFA. The samples were then analysed directly by reverse-phase HPLC (Dionex BioLC) on a μBondapak C18 column (3.9×300 mm, Waters), eluted with a linear gradient (0–60% acetonitrile in 0.1% TFA) at a flow rate of 1 ml/min. Control peptide samples were incubated in the absence of the purified enzymes and run in parallel.

porcine APEH [6] = target: T1, porcine APEH; assay: Time-dependent inhibition of APEH; assay type: biochemical; details: pre-incubation at least 20 min at 37°C, then diluted 1:5 into assay mixture with substrate
Protocol: The time-dependent inhibition of SsCEI 4 and t10c12-CLA towards APEH was assessed. Mixtures containing appropriate amounts of each inhibitor and of APEH were pre-incubated for 20 min at 37°C; they were then diluted (1∶5) into the standard assay mixture, which contained the substrate only. The enzymatic activity was followed as described above. Control samples were prepared by pre-incubating the same amounts of APEH without the inhibitors and then diluted in the standard assay mixture.

BHK cells = assay: Cytotoxicity in BHK cells; assay type: cell-based, Baby Hamster; details: 100 µM, 24 h or 48 h; data not shown
Protocol: The cells were plated in 12-well plates, to a confluence of 60% for the 24-h incubations, and 40% for 48-h exposure to PIs. These treatments were initiated 24-h after the plating of the cells. Phase-contrast images of the cells were taken just before the lysis of the cells for protein analysis, using a Lica DM6000 inverted microscope.

Thermal CD spectroscopy = assay type: physicochemical; details: CD 37°C to 77°C in 10°C steps, 5 mM Tris–HCl pH 7.5
Protocol: CD spectra were obtained on a Jasco J-715 spectropolarimeter with 400 µL of 8.0×10^-7 M protein in 5 mM Tris–HCl pH 7.5. Hellman quartz cells of 0.1-cm-path length were used in the far UV (190–250 nm). The temperature of the sample cell was regulated by a PTC-348 WI thermostat and thermal CD was performed from 250 to 195 nm by raising the cell temperature from 37°C to 77°C. The thermal CD spectra were signal-averaged by combining three scans and the baseline was corrected by subtracting a buffer spectrum. The samples were then cooled back to 37°C to monitor the final folding of the peptides.

bovine α-chymotrypsin = bovine α-chymotrypsin (Bos taurus, UniProt P00766); assay: Serine protease selectivity panel: α-chymotrypsin; assay type: biochemical; details: increasing peptide concentrations, hyperbolic fit (Figure S3); read-out: IC50 towards bovine α-chymotrypsin
[7] = Gel filtration (size-exclusion) analysis of oligomerization; assay type: physicochemical; details: 100 µM peptide
Protocol: Gel filtration chromatography was performed on a BioSep SEC-S2000 column equilibrated with 50 mM phosphate buffer pH 6.8, at a flow rate of 1.0 mL/min. A standard curve was built using a set of synthetic peptides with molecular weights between 1.500 amu and 2.500 amu. For this purpose, peptide aliquots were injected onto the column and a plot of KD versus log10 molecular weights (MW) was obtained, where KD = (Ve-Vo)/(VT-Vo), Ve is the elution volume of the sample, and VT and Vo are the total and void volumes of the column, respectively.

[8] = Stability in aqueous solution; assay type: physicochemical; details: at the concentrations required for CD analyses

In the case of `CC(C)C[C@@H](C=O)NC(=O)[C@H](CC(C)C)NC(=O)[C@H](CC(C)C)NC(=O)OCc1ccccc1` [MG132] (Cbz-Leu-Leu-Leu-aldehyde), the “polyubiquitin conjugates in cell extract” value [1] is reported as “presence of high-molecular-mass immunoreactive species” and the “effect on APEH activity in Caco-2 cells” value (APEH in Caco-2 cells; MG132 10 µM, 48 h) is reported as “no detectable effects”.

In the case of `CCCCCC/C=C/C=C\CCCCCCCC(=O)O` [c9t11-CLA, cis9-trans11 CLA], the “effect on APEHSs activity” value (APEHSs) is reported as “no significant modulatory effect” and the “effect on porcine APEH activity” value (porcine APEH [2]) is reported as “ineffective”.

With `CC[C@@H](C)[C@@H](O)[C@H](C)C(=O)[C@H](C)/C=C(\C)C[C@H](C)[C@@H]1OC(=O)[C@H]1CC` [ebelactone] the “toxicity (LDH release) compared with MG132” value (Caco-2 cells) was “significantly lower than that observed in culture incubated with MG132” and the “polyubiquitin conjugates in cell extract” value [1] was “presence of high-molecular-mass immunoreactive species”.

In the case of TILAEIKNINAD-NH2 [SsCEI 4], the “inhibition efficiency and Ki towards APEH in presence of the entire protease set” value (porcine APEH [3]) is reported as “comparable to those measured in the presence of the APEH alone”, the “IC50 towards human APEH relative to porcine APEH” value (human APEH) is reported as “Comparable” and the “enzymatic stability in 10% FBS” value [4] is reported as “completely stable for at least one week”. The “toxicity (LDH release) compared with MG132” value (Caco-2 cells) was “significantly lower than that observed in culture incubated with MG132”, the “cytotoxic effect (LDH activity levels)” value (Caco-2 cells; up to highest concentration 200 µM) was “not associated with any cytotoxic effect” and the “stability of peptide incubated with APEH (degradation / adducts)” value (porcine APEH [5]) was “neither peptide degradation nor covalent binding with APEH occurred”. The “inhibition of APEH after pre-incubation with the enzyme” value (porcine APEH [6]) was 100%, the “cytotoxic effects in BHK cells” value (BHK cells) was “without any cytotoxic effects” and the “decrease of APEH activity in Caco-2 cells” value (APEH in Caco-2 cells; 200 µM, 48 h (maximum effect)) was 70%.

In the case of TILLEIKNINAD-NH2 [SsCEI 2], the “IC50 towards human APEH relative to porcine APEH” value (human APEH) is reported as “Comparable”, the “structural stability with temperature (CD)” value (Thermal CD spectroscopy) is reported as “considerable structural stability” and the IC50 (bovine α-chymotrypsin) is reported as 21.9 ± 6.4 µM.

In the case of YAIDTILA EIKNINAD [SsCEI 3], the “Measured mass value (apparent MW by gel filtration)” value ([7]; BioSep SEC-S2000, 50 mM phosphate pH 6.8, Da±SD, three independent determinations) is reported as 2012±150 Da, the oligomerization state ([7]; size-exclusion chromatography) is reported as “essentially monomers” and the “structural stability with temperature (CD)” value (Thermal CD spectroscopy) is reported as “considerable structural stability”. For the same molecule, the “effect on APEHSs activity” value (APEHSs) was “no detectable decrease”.

With YAIDTILLEIKNINAD-NH2 [SsCEI 1] the “stability in aqueous solution” value [8] was “poor stability in aqueous solution”.
